In patent US20240400577A1, “MODULATORS OF PROTEIN KINASES” (VIBLIOME THERAPEUTICS, LLC, priority 2021, published 2024):

What was measured:
Assay in all cases: Kinase panel enzymatic inhibition assay (Nanosyn)
Assay type in all cases: biochemical
Details in all cases: compound 5 μM; ATP at Km; 30-minute pre-incubation
ZAK = target: T1, ZAK (Homo sapiens, UniProt Q9NYL2)
T1 construct: Nanosyn (contract laboratory that ran the panel)
How it was run: (§1)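 Read-out is percent inhibition or IC50, obtained by mobility shift, ADP detection or time-resolved fluorescence detection. Each kinase was run with ATP at its Km, and compound at 5 μM was pre-incubated for 30 minutes.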

PIKfyve = target: T2, PIKfyve (Homo sapiens, UniProt Q9Y2I7)
T2 construct: Nanosyn (contract laboratory that ran the panel)
How it was run: as §1

CSK = target: T3, CSK (Homo sapiens, UniProt P41240)
T3 construct: purchased Nanosyn (contract screening)
How it was run: as §1

PKCb1 = target: T4, PKCb1 (Homo sapiens, UniProt P05771)
T4 construct: Nanosyn (contract laboratory that ran the panel)
How it was run: as §1

CLK4 = target: T5, CLK4 (Homo sapiens, UniProt Q9HAZ1)
T5 construct: purchased Nanosyn (contract screening)
How it was run: as §1

T2 sequence (Q9Y2I7 whole entry): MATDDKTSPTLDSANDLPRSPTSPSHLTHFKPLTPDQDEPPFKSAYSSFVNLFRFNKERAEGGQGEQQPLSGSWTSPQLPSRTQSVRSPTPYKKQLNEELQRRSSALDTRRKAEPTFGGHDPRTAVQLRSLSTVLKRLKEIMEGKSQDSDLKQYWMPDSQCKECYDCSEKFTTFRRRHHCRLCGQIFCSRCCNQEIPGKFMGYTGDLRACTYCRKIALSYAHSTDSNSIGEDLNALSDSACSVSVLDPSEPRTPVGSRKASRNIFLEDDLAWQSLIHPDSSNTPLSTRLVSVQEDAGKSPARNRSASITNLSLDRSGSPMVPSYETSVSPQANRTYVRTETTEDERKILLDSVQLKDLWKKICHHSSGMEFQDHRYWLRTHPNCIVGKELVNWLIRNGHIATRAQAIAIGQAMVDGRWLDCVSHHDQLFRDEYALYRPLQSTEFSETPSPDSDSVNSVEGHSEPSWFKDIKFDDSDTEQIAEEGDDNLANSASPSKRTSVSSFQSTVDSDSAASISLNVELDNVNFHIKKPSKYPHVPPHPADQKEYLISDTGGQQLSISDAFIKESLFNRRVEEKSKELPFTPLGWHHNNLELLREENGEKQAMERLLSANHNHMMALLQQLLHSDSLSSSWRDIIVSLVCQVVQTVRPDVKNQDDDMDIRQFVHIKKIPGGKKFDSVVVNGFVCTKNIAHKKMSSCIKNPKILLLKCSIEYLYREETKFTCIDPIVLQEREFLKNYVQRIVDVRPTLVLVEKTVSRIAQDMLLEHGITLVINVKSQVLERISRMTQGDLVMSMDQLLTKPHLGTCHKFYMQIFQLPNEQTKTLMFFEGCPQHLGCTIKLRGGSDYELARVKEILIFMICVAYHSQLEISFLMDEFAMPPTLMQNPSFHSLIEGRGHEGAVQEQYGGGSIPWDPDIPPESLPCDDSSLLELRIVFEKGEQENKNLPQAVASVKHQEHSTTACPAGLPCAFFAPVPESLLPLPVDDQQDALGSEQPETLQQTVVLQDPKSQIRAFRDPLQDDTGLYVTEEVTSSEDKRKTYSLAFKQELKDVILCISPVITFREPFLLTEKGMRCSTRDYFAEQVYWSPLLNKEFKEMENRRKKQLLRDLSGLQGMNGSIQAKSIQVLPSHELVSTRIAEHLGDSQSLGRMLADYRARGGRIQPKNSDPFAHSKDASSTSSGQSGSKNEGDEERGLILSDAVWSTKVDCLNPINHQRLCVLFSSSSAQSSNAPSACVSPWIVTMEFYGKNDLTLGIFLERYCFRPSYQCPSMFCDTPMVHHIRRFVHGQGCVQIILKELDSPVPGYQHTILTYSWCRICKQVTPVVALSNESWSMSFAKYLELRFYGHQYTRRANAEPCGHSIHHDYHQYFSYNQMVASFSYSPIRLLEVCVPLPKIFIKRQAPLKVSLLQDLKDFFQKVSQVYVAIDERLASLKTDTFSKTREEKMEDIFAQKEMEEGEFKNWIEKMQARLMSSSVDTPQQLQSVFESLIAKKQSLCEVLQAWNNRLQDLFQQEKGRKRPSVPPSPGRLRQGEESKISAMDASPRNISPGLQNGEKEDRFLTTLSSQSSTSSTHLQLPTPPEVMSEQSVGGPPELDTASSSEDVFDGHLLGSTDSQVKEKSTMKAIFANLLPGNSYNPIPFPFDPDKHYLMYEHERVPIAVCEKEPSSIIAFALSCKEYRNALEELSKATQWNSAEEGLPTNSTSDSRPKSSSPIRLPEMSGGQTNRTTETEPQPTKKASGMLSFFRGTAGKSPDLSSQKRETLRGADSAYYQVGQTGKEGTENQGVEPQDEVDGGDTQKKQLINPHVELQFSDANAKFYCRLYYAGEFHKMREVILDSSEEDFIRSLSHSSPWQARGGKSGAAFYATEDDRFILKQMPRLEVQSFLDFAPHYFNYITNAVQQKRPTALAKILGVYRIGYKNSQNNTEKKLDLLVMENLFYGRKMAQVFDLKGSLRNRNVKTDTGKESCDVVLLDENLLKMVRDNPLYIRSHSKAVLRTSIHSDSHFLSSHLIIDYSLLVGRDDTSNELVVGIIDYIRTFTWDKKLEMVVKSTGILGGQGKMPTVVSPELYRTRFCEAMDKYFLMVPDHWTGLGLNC
T1 sequence (Q9NYL2 whole entry): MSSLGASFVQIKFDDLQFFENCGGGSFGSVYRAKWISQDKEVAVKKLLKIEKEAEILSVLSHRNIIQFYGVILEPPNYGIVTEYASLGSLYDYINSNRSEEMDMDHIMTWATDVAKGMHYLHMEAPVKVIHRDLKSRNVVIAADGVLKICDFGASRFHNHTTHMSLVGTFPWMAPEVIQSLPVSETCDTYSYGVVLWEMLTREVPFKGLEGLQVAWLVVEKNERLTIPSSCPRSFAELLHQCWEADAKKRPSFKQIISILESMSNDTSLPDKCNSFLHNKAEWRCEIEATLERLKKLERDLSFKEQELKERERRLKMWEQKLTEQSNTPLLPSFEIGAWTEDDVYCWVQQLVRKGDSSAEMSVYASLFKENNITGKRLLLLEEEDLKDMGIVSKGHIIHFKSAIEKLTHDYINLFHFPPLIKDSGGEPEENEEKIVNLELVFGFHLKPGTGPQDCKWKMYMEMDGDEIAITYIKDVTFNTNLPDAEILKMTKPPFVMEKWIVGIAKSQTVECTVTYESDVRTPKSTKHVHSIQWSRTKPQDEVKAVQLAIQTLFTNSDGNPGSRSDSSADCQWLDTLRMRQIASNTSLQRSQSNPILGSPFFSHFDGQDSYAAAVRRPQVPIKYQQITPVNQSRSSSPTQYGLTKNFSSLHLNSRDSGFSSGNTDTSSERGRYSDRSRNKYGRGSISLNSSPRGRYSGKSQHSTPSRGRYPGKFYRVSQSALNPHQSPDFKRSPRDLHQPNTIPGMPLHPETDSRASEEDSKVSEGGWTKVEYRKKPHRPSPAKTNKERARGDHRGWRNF
T5 sequence (Q9HAZ1 whole entry): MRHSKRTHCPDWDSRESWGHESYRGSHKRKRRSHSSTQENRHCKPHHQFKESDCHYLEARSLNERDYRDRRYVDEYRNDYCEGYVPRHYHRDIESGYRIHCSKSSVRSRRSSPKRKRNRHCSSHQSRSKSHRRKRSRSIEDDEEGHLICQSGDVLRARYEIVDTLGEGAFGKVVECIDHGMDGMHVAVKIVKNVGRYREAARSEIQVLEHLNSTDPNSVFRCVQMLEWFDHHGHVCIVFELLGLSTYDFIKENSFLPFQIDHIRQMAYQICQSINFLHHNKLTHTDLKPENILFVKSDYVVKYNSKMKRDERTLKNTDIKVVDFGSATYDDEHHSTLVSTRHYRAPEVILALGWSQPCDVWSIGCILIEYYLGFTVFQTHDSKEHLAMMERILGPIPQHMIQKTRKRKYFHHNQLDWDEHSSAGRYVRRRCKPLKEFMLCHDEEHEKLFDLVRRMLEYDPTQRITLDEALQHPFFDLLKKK
T3 sequence (P41240 whole entry): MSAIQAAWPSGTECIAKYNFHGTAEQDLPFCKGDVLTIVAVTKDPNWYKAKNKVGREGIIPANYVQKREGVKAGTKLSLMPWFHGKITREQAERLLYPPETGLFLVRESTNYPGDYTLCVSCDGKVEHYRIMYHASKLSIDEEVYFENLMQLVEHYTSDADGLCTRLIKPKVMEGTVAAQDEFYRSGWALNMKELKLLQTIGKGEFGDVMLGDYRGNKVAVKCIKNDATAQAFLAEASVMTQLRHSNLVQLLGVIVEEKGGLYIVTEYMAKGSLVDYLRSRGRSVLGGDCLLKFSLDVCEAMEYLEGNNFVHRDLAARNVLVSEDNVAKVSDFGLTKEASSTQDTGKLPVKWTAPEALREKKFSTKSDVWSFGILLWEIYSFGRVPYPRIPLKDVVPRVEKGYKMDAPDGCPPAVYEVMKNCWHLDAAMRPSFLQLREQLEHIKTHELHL
T4 sequence (P05771 whole entry): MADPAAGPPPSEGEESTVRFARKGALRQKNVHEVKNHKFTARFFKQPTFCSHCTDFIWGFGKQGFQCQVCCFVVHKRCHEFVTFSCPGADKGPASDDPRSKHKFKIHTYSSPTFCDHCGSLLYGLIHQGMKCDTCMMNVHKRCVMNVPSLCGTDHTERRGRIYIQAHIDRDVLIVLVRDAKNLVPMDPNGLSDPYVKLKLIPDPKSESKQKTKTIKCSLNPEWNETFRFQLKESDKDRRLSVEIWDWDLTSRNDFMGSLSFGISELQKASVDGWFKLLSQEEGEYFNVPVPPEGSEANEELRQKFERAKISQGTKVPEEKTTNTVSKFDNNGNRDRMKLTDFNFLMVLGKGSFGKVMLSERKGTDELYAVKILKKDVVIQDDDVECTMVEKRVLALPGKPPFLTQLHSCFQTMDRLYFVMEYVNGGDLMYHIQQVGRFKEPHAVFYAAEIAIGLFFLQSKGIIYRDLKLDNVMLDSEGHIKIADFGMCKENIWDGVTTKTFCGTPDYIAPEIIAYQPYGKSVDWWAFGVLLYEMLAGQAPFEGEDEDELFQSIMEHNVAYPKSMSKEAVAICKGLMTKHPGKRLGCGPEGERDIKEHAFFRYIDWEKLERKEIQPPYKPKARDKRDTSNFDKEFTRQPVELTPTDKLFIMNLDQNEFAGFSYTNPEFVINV

**Q.** Which inhibition at 5 µM (ZAK) does the source give for Cc1ccc(NC(=O)c2cc(S(C)(=O)=O)n(-c3ccc(F)cc3)n2)cc1Nc1ccc2ncn(C)c(=O)c2c1 [Ex4, 1-(4-fluorophenyl)-N-(4-methyl-3-((3-methyl-4-oxo-3,4-dihydroquinazolin-6-yl)amino)phenyl)-5-(methylsulfonyl)-1H-pyrazole-3-carboxamide] here?
**A.** < 79%

**Q.** What about the inhibition at 5 µM (PIKfyve) of the same compound?
**A.** < 79%

**Q.** What about the inhibition at 5 µM (CSK) of the same compound?
**A.** < 79%

**Q.** What about the inhibition at 5 µM (PKCb1) of the same compound?
**A.** < 79%

**Q.** And the inhibition at 5 µM (CLK4)?
**A.** < 79%

**Q.** Which results are given for Cc1ccc(NC(=O)c2cc([S+](C)[O-])n(-c3ccc(F)cc3)n2)cc1Nc1ccc2ncn(C)c(=O)c2c1 (stereo not shown) [Ex5, 1-(4-fluorophenyl)-N-(4-methyl-3-((3-methyl-4-oxo-3,4-dihydroquinazolin-6-yl)amino)phenyl)-5-(methylsulfinyl)-1H-pyrazole-3-carboxamide]?
**A.** inhibition at 5 µM (ZAK): < 79%; inhibition at 5 µM (PIKfyve): < 79%; inhibition at 5 µM (CSK): < 79%; inhibition at 5 µM (PKCb1): < 79%; inhibition at 5 µM (CLK4): < 79%

**Q.** Which results are given for Cc1ccc(NC(=O)c2cc([S+](C)[O-])n(-c3ccc(F)cc3)n2)cc1C#Cc1cnc2cccnn12 (stereo not shown) [Ex6, 1-(4-fluorophenyl)-N-(3-(imidazo[1,2-b]pyridazin-3-ylethynyl)-4-methylphenyl)-5-(methylsulfinyl)-1H-pyrazole-3-carboxamide]?
**A.** inhibition at 5 µM (ZAK): < 79%; inhibition at 5 µM (PIKfyve): 90 to 94%; inhibition at 5 µM (CSK): 80 to 89%; inhibition at 5 µM (PKCb1): < 79%; inhibition at 5 µM (CLK4): < 79%

**Q.** For CNC(=O)c1cc(Oc2ccc(F)c(NC(=O)c3cc([S+](C)[O-])n(-c4ccc(F)cc4)n3)c2)ccn1 (stereo not shown) [Ex7, 4-(4-fluoro-3-(1-(4-fluorophenyl)-5-(methylsulfinyl)-1H-pyrazole-3-carboxamido)phenoxy)-N-methylpicolinamide], which inhibition at 5 µM (ZAK) is on record?
**A.** < 79%

**Q.** What about the inhibition at 5 µM (PIKfyve) of the same compound?
**A.** < 79%

**Q.** And the inhibition at 5 µM (CSK)?
**A.** < 79%

**Q.** And the inhibition at 5 µM (PKCb1)?
**A.** < 79%

**Q.** What about the inhibition at 5 µM (CLK4) of the same compound?
**A.** < 79%

**Q.** How did the inhibition at 5 µM (ZAK) turn out when CSc1cc(C(=O)Nc2cc(Oc3ccnc(C(=O)NC4CNC4)c3)ccc2F)nn1-c1ccc(F)cc1 [Ex8, N-(azetidin-3-yl)-4-(4-fluoro-3-(1-(4-fluorophenyl)-5-(methylthio)-1H-pyrazole-3-carboxamido)phenoxy)picolinamide] was run?
**A.** < 79%

**Q.** And the inhibition at 5 µM (PIKfyve)?
**A.** < 79%

**Q.** What about the inhibition at 5 µM (CSK) of the same compound?
**A.** < 79%

**Q.** What about the inhibition at 5 µM (PKCb1) of the same compound?
**A.** 80 to 89%

**Q.** And the inhibition at 5 µM (CLK4)?
**A.** 80 to 89%

**Q.** With Cc1ccc(NC(=O)c2cc(S(C)(=O)=O)n(-c3ccc(F)cc3)n2)cc1-c1cc(OCCO)nc(N2CCOCC2)c1 [Ex9, 1-(4-fluorophenyl)-N-(3-(2-(2-hydroxyethoxy)-6-morpholinopyridin-4-yl)-4-methylphenyl)-5-(methylsulfonyl)-1H-pyrazole-3-carboxamide] as the compound, how does the inhibition at 5 µM (ZAK) read?
**A.** < 79%

**Q.** What about the inhibition at 5 µM (PIKfyve) of the same compound?
**A.** < 79%

**Q.** What about the inhibition at 5 µM (CSK) of the same compound?
**A.** < 79%

**Q.** And the inhibition at 5 µM (PKCb1)?
**A.** < 79%

**Q.** What about the inhibition at 5 µM (CLK4) of the same compound?
**A.** < 79%

**Q.** Which results are given for Cc1ccc(NC(=O)c2cc([S+](C)[O-])n(-c3ccc(F)cc3)n2)cc1-c1cc(OCCO)nc(N2CCOCC2)c1 (stereo not shown) [Ex10, 1-(4-fluorophenyl)-N-(3-(2-(2-hydroxyethoxy)-6-morpholinopyridin-4-yl)-4-methylphenyl)-5-(methylsulfinyl)-1H-pyrazole-3-carboxamide]?
**A.** inhibition at 5 µM (ZAK): < 79%; inhibition at 5 µM (PIKfyve): < 79%; inhibition at 5 µM (CSK): < 79%; inhibition at 5 µM (PKCb1): < 79%; inhibition at 5 µM (CLK4): < 79%

**Q.** Cc1ccc(NC(=O)c2cc([S+](C)[O-])n(-c3ccc(F)cc3)n2)cc1-c1cc(N2CCOCC2)c(=O)n(C)c1 (stereo not shown) [Ex11, 1-(4-fluorophenyl)-N-(4-methyl-3-(1-methyl-5-morpholino-6-oxo-1,6-dihydropyridin-3-yl)phenyl)-5-(methylsulfinyl)-1H-pyrazole-3-carboxamide] was tested. Which inhibition at 5 µM (ZAK) did it give?
**A.** < 79%

**Q.** What about the inhibition at 5 µM (PIKfyve) of the same compound?
**A.** < 79%

**Q.** And the inhibition at 5 µM (CSK)?
**A.** < 79%

**Q.** What about the inhibition at 5 µM (PKCb1) of the same compound?
**A.** < 79%

**Q.** What about the inhibition at 5 µM (CLK4) of the same compound?
**A.** < 79%

**Q.** Which results are given for Cc1ccc(NC(=O)c2cc(S(C)(=O)=O)n(-c3ccc(F)cc3)n2)cc1-c1cc(N2CCOCC2)c(=O)n(C)c1 [Ex12, 1-(4-fluorophenyl)-N-(4-methyl-3-(1-methyl-5-morpholino-6-oxo-1,6-dihydropyridin-3-yl)phenyl)-5-(methylsulfonyl)-1H-pyrazole-3-carboxamide]?
**A.** inhibition at 5 µM (ZAK): < 79%; inhibition at 5 µM (PIKfyve): < 79%; inhibition at 5 µM (CSK): < 79%; inhibition at 5 µM (PKCb1): < 79%; inhibition at 5 µM (CLK4): < 79%

**Q.** How did the inhibition at 5 µM (ZAK) turn out when Cc1ccc(NC(=O)c2cc(S(C)(=O)=O)n(-c3ccc(F)cc3)n2)cc1Nc1nccc(-c2cccnc2N)n1 [Ex13, N-(3-((4-(2-aminopyridin-3-yl)pyrimidin-2-yl)amino)-4-methylphenyl)-1-(4-fluorophenyl)-5-(methylsulfonyl)-1H-pyrazole-3-carboxamide] was run?
**A.** < 79%

**Q.** And the inhibition at 5 µM (PIKfyve)?
**A.** < 79%

**Q.** What about the inhibition at 5 µM (CSK) of the same compound?
**A.** < 79%

**Q.** And the inhibition at 5 µM (PKCb1)?
**A.** < 79%

**Q.** And the inhibition at 5 µM (CLK4)?
**A.** < 79%

**Q.** What does the source list for Cc1ccc(NC(=O)c2cc(S(C)(=O)=O)n(-c3ccc(F)cc3)n2)cc1C#Cc1cnc2cccnn12 [Ex14, 1-(4-fluorophenyl)-N-(3-(imidazo[1,2-b]pyridazin-3-ylethynyl)-4-methylphenyl)-5-(methylsulfonyl)-1H-pyrazole-3-carboxamide]?
**A.** inhibition at 5 µM (ZAK): 80 to 89%; inhibition at 5 µM (PIKfyve): 80 to 89%; inhibition at 5 µM (CSK): 80 to 89%; inhibition at 5 µM (PKCb1): < 79%; inhibition at 5 µM (CLK4): < 79%

**Q.** How did the inhibition at 5 µM (ZAK) turn out when CCOC(=O)Nc1cn2nc(Nc3cc(NC(=O)c4cc(S(C)(=O)=O)n(-c5ccc(F)cc5)n4)ccc3C)ccc2n1 [Ex15, ethyl (6-((5-(1-(4-fluorophenyl)-5-(methylsulfonyl)-1H-pyrazole-3-carboxamido)-2-methylphenyl)amino)imidazo[1,2-b]pyridazin-2-yl)carbamate] was run?
**A.** < 79%

**Q.** What about the inhibition at 5 µM (PIKfyve) of the same compound?
**A.** < 79%

**Q.** What about the inhibition at 5 µM (CSK) of the same compound?
**A.** 80 to 89%

**Q.** And the inhibition at 5 µM (PKCb1)?
**A.** < 79%

**Q.** What about the inhibition at 5 µM (CLK4) of the same compound?
**A.** < 79%

**Q.** With CNC(=O)c1cc(Oc2ccc(NC(=O)c3cc(S(C)(=O)=O)n(-c4ccc(F)cc4)n3)c(F)c2)ccn1 [Ex17, 4-(3-fluoro-4-(1-(4-fluorophenyl)-5-(methylsulfonyl)-1H-pyrazole-3-carboxamido)phenoxy)-N-methylpicolinamide] as the compound, how does the inhibition at 5 µM (ZAK) read?
**A.** < 79%

**Q.** What about the inhibition at 5 µM (PIKfyve) of the same compound?
**A.** < 79%

**Q.** And the inhibition at 5 µM (CSK)?
**A.** < 79%

**Q.** What about the inhibition at 5 µM (PKCb1) of the same compound?
**A.** < 79%

**Q.** What about the inhibition at 5 µM (CLK4) of the same compound?
**A.** < 79%

**Q.** What does the source list for CCOC(=O)Nc1cn2nc(Nc3cc(NC(=O)c4cc([S+](C)[O-])n(-c5ccc(F)cc5)n4)ccc3C)ccc2n1 (stereo not shown) [Ex18, ethyl (6-((5-(1-(4-fluorophenyl)-5-(methylsulfinyl)-1H-pyrazole-3-carboxamido)-2-methylphenyl)amino)imidazo[1,2-b]pyridazin-2-yl)carbamate]?
**A.** inhibition at 5 µM (ZAK): < 79%; inhibition at 5 µM (PIKfyve): < 79%; inhibition at 5 µM (CSK): < 79%; inhibition at 5 µM (PKCb1): < 79%; inhibition at 5 µM (CLK4): < 79%
